Measured values: PubChem BioAssay (NCI)
Values joined by “and” are separate entries in the source; they are usually repeats but may differ in a detail not shown here. Equal entries are not always repeated.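 Where inhibition never reached the appropriate level, the endpoint shown equals the highest concentration tested. Otherwise, values were interpolated linearly from a five-concentration, 48-hour dose response in 96-well plates. Here, GI50 denotes the concentration required for 50% inhibition of growth. At the TGI there is no net growth.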

Assays:
Test in all cases: inhibition of tumour cell growth, NCI panel, 48 h
UO-31 renal = tested on: UO-31 renal
NCI-H23 lung = tested on: NCI-H23 lung
M14 melanoma = tested on: M14 melanoma
OVCAR-5 ovarian = tested on: OVCAR-5 ovarian
U251 CNS = tested on: U251 CNS
A549 NSCLC = tested on: A549 NSCLC
MDA-MB-231 breast = tested on: MDA-MB-231 breast
MALME-3M melanoma = tested on: MALME-3M melanoma
HS 578T breast = tested on: HS 578T breast
SNB-75 CNS = tested on: SNB-75 CNS

Compound	GI50 (UO-31 renal) [nM]	TGI (UO-31 renal) [µM]	GI50 (NCI-H23 lung)	TGI (NCI-H23 lung) [µM]	GI50 (M14 melanoma)	TGI (M14 melanoma) [µM]	GI50 (OVCAR-5 ovarian)	TGI (OVCAR-5 ovarian) [µM]	GI50 (U251 CNS) [nM]	TGI (U251 CNS)	GI50 (A549 NSCLC)	TGI (A549 NSCLC) [µM]	GI50 (MDA-MB-231 breast)	TGI (MDA-MB-231 breast)	GI50 (MALME-3M melanoma) [nM]	TGI (MALME-3M melanoma) [µM]	GI50 (HS 578T breast)	TGI (HS 578T breast) [µM]	GI50 (SNB-75 CNS)	TGI (SNB-75 CNS) [µM]
O=C(Nc1ccc(Cl)cc1F)c1cc(Br)ccc1O	461	3.65	659 nM	4.69	751 nM	3.75	3.71 µM	> 100	913	> 52.4 µM	1.42 µM	> 100	968 nM	8.12 µM	595	2.65	0.521 µM	4.08	468 nM	2.87
O=C(Nc1cccc(Cl)c1Cl)c1cccc(NC2=C(Cl)C(=O)N(Cc3ccccc3)C2=O)c1	21100	> 100	41400 nM	> 100	35800 nM	> 100	89.5 µM	> 100	46200	> 100 µM	36.2 µM	> 100	32200 nM	> 100 µM	> 100000	> 100	28.7 µM	> 100	> 100000 nM	> 100
CC(=O)Oc1ccccc1C(=O)N=C1[Se]CCCN1C(=O)c1ccccc1OC(C)=O	1330	4.25	2720 nM	7.78	1860 nM	4.68	3.25 µM	8.66	1640	3 µM	1.85 µM	3.69	2220 nM	5.02 µM	2310	4.9	2.07 µM	6.32	2010 nM	4.69
Cc1cc(NC(=O)c2ccc(C)c(Nc3nccc(-c4cccnc4)n3)c2)cc(-n2cnc(C)c2)c1	1970	5.3	9440 nM	> 34.1	2710 nM	10.1	3.54 µM	10.5	1990	7.61 µM	0.492 µM	8.7	1250 nM	5.45 µM	2390	10.6	0.0847 µM	14.4	1100 nM	2.81
COc1cc2c(cc1OC)C13CCN4CC5=CCOC6CC(=O)N2C1C6C5CC43O (stereo not drawn)	–	> 100	–	> 100	–	> 100	–	> 100	–	> 100 µM	–	> 100	–	> 100 µM	–	> 100	–	> 100	–	> 100
CC(=O)c1c(CBr)n([O-])c2ccccc2[n+]1=O	5510	19	15700 nM	32.6	12100 nM	25.6	18.5 µM	44.4	16200	29.9 µM	23.1 µM	57	12200 nM	25 µM	4480	17.4	17.4 µM	48.8	14700 nM	29.6
OCCCCC#Cc1ccccc1C#Cc1cccc(O)c1	15900	32.5	18000 nM	36.1	17400 nM	35.1	16.9 µM	32.1	15000	31.3 µM	15.7 µM	32.2	12800 nM	26.7 µM	18900	40.8	31.2 µM	94.7	16100 nM	38.1
CN(C)c1ccc2nc3ccc(=O)cc-3sc2c1	545	> 74.5	820 nM	> 100	408 nM	10.8	4.68 µM	> 70.2	720	32.2 µM	0.312 µM	3.02	1140 nM	> 45.4 µM	333	4.18	7.12 µM	> 100	11700 nM	> 100
Fc1ccc(Nc2cc(-n3nnc4ccccc43)nc3ccccc23)cc1	> 55900	> 100	49200 nM	> 100	> 81700 nM	> 100	> 100 µM	> 100	27600	> 76.1 µM	64.4 µM	> 100	8440 nM	> 49.2 µM	23100	> 70.6	18.2 µM	> 68.7	14100 nM	45.8
COc1ccc(CNc2c3ccccc3nc3ccccc23)cc1OC	1170	5.05	2130 nM	7.47	1970 nM	4.76	2.56 µM	11	2980	13.6 µM	2.24 µM	6.87	2370 nM	7.32 µM	1950	4.98	2.64 µM	10.1	2390 nM	11.3
O=C(Nc1cccc(Cl)c1)c1cc2ccccc2cc1O	340	> 100	1760 nM and 1030 nM	–	3670 nM and 2240 nM	> 100	6.59 µM and 1.98 µM	> 100	1740	19.6 µM and 8.44 µM	3.63 µM and 3.31 µM	> 100	4650 nM and 2370 nM	> 100 µM and 15.4 µM	710	21.9	2.12 µM and 3.42 µM	–	1620 nM and 1550 nM	> 100
COc1ccccc1/C=C/c1cnccn1	–	> 10	–	> 10	–	> 10	–	> 10	–	> 10 µM	–	> 10	–	> 10 µM	–	> 10	–	> 10	–	> 10
Cc1sc2nc(NCCc3c[nH]c4ccc(Cl)cc34)[nH]c(=O)c2c1C	1220	2.77	2390 nM	6.22	2400 nM	9.49	2.97 µM	11.7	2260	6.94 µM	2.13 µM	5.09	2590 nM	8.74 µM	2380	7.45	1.86 µM	6.25	1650 nM	5.21
CCCS(=O)(=O)Nc1ccc(Nc2c3ccccc3nc3ccccc23)c(OC)c1	–	6.47	–	8.26	–	17.8	–	23.6	–	4.41 µM	–	5.99	–	10.4 µM	–	6.68	–	16.7	–	6.49
O=C(O)c1ccccc1-c1ccccc1C(=O)Nc1ccc2c(c1)Cc1cc(F)ccc1-2	–	> 100	–	36.5	–	40	–	88.1	–	50.2 µM	–	85.9	–	83.2 µM	–	88.7	–	> 100	–	> 100
COc1ccc(-n2cc(-c3ccc(Cl)c(Cl)c3)nc2SCc2cccc(C#N)c2)cc1	35200	> 100	39800 nM	> 100	48200 nM	> 100	94.1 µM	> 100	26800	> 100 µM	93.8 µM	> 100	68000 nM	> 100 µM	16400	> 100	18.4 µM	> 100	17000 nM	53.4
Nc1c(C(=O)N/N=C/c2ccc(-c3ccc(Cl)cc3)o2)cnn1-c1ccnc2c(C(F)(F)F)cccc12	> 100000	> 100	> 100000 nM	> 100	> 100000 nM	> 100	> 100 µM	> 100	> 100000	> 100 µM	83.9 µM	> 100	> 100000 nM	> 100 µM	> 100000	> 100	> 100 µM	> 100	65400 nM	> 100
COc1cc2cn3c4ccc(O)cc4[nH]c(=O)c3c2cc1OC	39.8	1.64	71.6 nM	1.9	20.6 nM	1.64	0.269 µM	2.36	< 10	1.23 µM	0.042 µM	1.3	51.6 nM	1.79 µM	34.9	2.06	0.0702 µM	> 100	19.7 nM	1.47
Nc1nc(Br)nc2c1ncn2C1CC(O)C(CO)O1 (stereo not drawn)	1300	> 100	1080 nM	> 100	1100 nM	8.56	90.8 µM	> 100	11400	> 100 µM	5.34 µM	> 100	> 71200 nM	> 100 µM	> 100000	> 100	> 93.3 µM	> 100	> 100000 nM	> 100
CN1CCc2c(Sc3ccc(C(=O)NO)cc3)c3ccccc3n2C1	2330	14.9	1700 nM	3.88	1810 nM	4.53	2.6 µM	10.7	1600	3.29 µM	3.29 µM	12.9	1750 nM	4.19 µM	1120	4.33	2.64 µM	27	674 nM	3.79
NC(N)=N/N=C/c1cc(Cl)cc(Cl)c1O	–	> 100	–	> 100	–	> 100	–	> 100	–	> 100 µM	–	> 100	–	> 100 µM	–	> 100	–	> 100	–	89.1
CN(C)Cc1c[nH]c2c1C(=O)c1c(c(O)c3ccccc3c1O)C2=O	8600	29.5	9340 nM	24.9	17200 nM	40.4	14.3 µM	27.3	5560	18.7 µM	7.59 µM	20.6	11600 nM	25 µM	9610	23.3	10.9 µM	26.7	20000 nM	53.5
O=C(O)c1cc(O)c2c(c1)C(C1c3cc(C(=O)O)cc(O)c3C(=O)c3c(OC4OC(CO)C(O)C(O)C4O)cccc31)c1cccc(OC3OC(CO)C(O)C(O)C3O)c1C2=O (stereo not drawn)	> 100000	> 100	> 100000 nM	> 100	> 100000 nM	> 100	> 100 µM	> 100	> 100000	> 100 µM	> 100 µM	> 100	> 100000 nM	> 100 µM	> 100000	> 100	> 100 µM	> 100	> 100000 nM	> 100
Cc1c[n+](Cc2ccc3ccccc3c2)cn1Cc1ccc2ccccc2c1	5470	20.4	1490 nM	3.97	1580 nM	3.66	1.81 µM	3.95	1610	3.07 µM	5.05 µM	18.7	1540 nM	3.24 µM	1290	3.02	2.22 µM	6.65	1090 nM	2.51
